Assay results from patent US20250011311A1, “AMIDO HETEROAROMATIC COMPOUNDS” (AstraZeneca AB, priority 2022, published 2025).
pEC50, pIC50: −log10 of the molar value.

Assays:
[1] = target: recombinant 17bHSD4 (M1-N311) (Homo sapiens (Human), UniProt P51659); test: In Vitro 17bHSD4 Enzyme Assay; format: biochemical; details: 40 nM 17bHSD4, 0.125 mM NAD, 15 μM Estradiol, 1.5 h; NADH fluorescence; read-out: 17HSD17b4 Enzyme assay IC50
[2] = target: over expressed HSD17β13 in HEK293S cells (Homo sapiens (Human), UniProt Q7Z5P4); test: In Vitro 17bHSD13 Cell Assay; format: cell-based; details: HEK293S cells over expressing HSD17β13; estradiol to estrone conversion, 18 h, LC-MS/MS; read-out: 17bHSD1713 Cell assay IC50
Chain of over expressed HSD17β13 in HEK293S cells (Q7Z5P4 20-300): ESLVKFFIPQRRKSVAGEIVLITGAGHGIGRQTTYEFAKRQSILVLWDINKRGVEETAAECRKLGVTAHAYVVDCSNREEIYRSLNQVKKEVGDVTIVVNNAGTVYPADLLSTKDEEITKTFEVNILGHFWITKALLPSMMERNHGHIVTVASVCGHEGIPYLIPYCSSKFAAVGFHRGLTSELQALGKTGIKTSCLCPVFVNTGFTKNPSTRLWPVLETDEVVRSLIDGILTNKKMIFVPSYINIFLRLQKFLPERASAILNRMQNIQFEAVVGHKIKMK
How it was run: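 HEK293S cells overexpressing HSD17β13 convert estradiol to estrone; product read by LC-MS/MS (APCI, positive MRM) as AUC ratio estrone/(estrone+estradiol). Effect normalised between DMSO and maximal inhibition by a known inhibitor control; IC50 from curve fit.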

[3] = target: human CB1 receptor expressed in transfected CHO cells (Homo sapiens (Human), UniProt P21554); test: Assay C: CB1 Agonism Assay; format: cell-based; details: agonist activity, cAMP HTRF, read-out: Assay C: CB1 Hu CHO cAMP TRF Ag CR GMean EC50
Chain of human CB1 receptor expressed in transfected CHO cells (P21554 whole entry): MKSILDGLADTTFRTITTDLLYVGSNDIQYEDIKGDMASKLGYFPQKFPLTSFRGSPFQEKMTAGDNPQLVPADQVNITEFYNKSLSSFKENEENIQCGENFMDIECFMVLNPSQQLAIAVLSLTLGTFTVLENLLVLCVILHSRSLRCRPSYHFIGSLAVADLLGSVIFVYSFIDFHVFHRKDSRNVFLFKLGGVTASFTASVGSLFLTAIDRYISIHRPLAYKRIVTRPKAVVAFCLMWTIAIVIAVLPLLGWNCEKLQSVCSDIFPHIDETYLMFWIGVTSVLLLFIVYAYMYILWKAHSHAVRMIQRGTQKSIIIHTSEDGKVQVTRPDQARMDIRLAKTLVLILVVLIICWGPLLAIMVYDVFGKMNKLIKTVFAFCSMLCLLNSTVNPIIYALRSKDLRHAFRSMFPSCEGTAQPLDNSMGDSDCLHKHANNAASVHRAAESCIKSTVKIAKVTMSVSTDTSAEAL
Procedure: Assay C: CB1 Agonism Assay
Evaluation of the agonist activity of compounds at the human CB1 receptor expressed in transfected CHO cells, determined by measuring their effects on cAMP modulation using the HTRF detection method.
Thereafter, the adenylyl cyclase activator NKH 477 is added at a final concentration of 3 μM. Following 20 min incubation at 37° C., the cells are lysed and the fluorescence acceptor (D2-labeled cAMP) and fluorescence donor (anti-cAMP antibody labeled with europium cryptate) are added. After 60 min at room temperature, the fluorescence transfer is measured at gex=337 nm and gem=620 and 665 nm using a microplate reader (RUBYSTAR, BMG). The cAMP concentration is determined by dividing the signal measured at 665 nm by that measured at 620 nm (ratio). The results are expressed as a percent of the control response to 30 nM CP 55940. The standard reference agonist is CP 55940, which is tested in each experiment at several concentrations to generate a concentration-response curve from which its EC50 value is calculated.
Bibliographic reference Felder, C. C. et al., (1995), Comparison of the pharmacology and signal transduction of the human cannabinoid CB1 and CB2 receptors, Mol. Pharmacol., 48: 443, which is incorporated herein by reference.

CYP2C9 = CYP2C9 (Homo sapiens (Human), UniProt P11712); test: Assay B: Cytochrome P450 Inhibition 2C9
Chain of CYP2C9 (P11712 whole entry): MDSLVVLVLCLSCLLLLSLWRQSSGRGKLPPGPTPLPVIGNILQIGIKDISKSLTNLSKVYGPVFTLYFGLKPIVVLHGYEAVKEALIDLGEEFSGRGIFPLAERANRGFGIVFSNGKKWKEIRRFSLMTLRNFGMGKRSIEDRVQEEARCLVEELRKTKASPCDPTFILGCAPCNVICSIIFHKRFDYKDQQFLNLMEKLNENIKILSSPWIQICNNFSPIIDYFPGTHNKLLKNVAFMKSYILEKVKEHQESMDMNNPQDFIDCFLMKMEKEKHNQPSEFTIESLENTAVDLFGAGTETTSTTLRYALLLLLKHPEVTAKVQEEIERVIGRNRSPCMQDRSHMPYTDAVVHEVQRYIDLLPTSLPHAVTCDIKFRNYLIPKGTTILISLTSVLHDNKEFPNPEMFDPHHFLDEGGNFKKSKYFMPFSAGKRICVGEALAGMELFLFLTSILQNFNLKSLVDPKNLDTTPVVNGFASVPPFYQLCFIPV
Procedure: A fluorescence-based method in 96-well format was used to determine the inhibition of 2C9 (Crespi, C. L. et al., Microtiter plate assays for inhibition of human, drug-metabolizing cytochromes P450. Anal Biochem 1997, 248 (1), 188-190. DOI: 10.1006/abio.1997.2145, which is incorporated herein by reference). The recombinant human enzymes used were prepared in house, except for CYP2D6 (CYPEX LTD, Dundee, UK). Different coumarin substrates, biotransformed into fluorescent metabolites, were used as probes for each individual CYP. A fluorescence plate reader (SPECTRAMAX GEMINIXS, MOLECULAR DEVICES, Sunnyvale, California, USA) was used to measure the levels of metabolites formed. A dilution series of the test substrates was prepared at eight different concentrations. For each CYP, a mixture of the enzyme, corresponding coumarin substrate, potassium phosphate buffer pH 7.4 and water (concentrations and volumes were CYP-dependent) were added to each well in a black 96-well plate. The test substrates at different concentrations were added. After 10 min pre-incubation, the co-factor NADPH was added to initiate the reaction. After 20-50 min (CYP and substrate-dependent) the reaction was terminated by addition of trisbase/MeCN (20:80). The plates were transferred to the fluorescence plate reader where the wavelengths were set individually for the different coumarin substrates and their respective fluorescent metabolite. The responses were exported to Excel where the IC50 curves were plotted (percent inhibition versus concentration) and IC50 values calculated for each test substrate and enzyme using XL-fit.

[4] = Metabolism Study: in vitro study to identify metabolites; format: in vitro ADME
Source text: Metabolites 1 and 2 were subsequently synthesised and characterised.

Chain of recombinant 17bHSD4 (M1-N311) (P51659 1-311): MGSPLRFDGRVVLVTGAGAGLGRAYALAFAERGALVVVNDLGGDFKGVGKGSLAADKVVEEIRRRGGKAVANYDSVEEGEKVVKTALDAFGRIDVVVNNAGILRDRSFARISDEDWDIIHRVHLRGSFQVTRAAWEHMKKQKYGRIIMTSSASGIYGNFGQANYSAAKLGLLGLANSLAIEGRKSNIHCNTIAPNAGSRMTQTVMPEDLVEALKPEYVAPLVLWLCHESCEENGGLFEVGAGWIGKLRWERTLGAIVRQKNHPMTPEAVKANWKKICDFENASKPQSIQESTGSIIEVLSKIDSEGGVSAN

Row | Compound | pIC50 [1] | pIC50 [2] | pEC50 [3] | pIC50 (CYP2C9) | metabolites identified [4]
1 | CC[C@H]1CN(C(=O)c2noc(-c3cc(F)c(F)c(O)c3F)n2)C[C@@H](C)O1 (racemic) [Example 121, rac-((2R,6S)-2-Ethyl-6-methylmorpholino)(5-(2,4,5-trifluoro-3-hydroxyphenyl)-1,2,4-oxadiazol-3-yl)methanone] | < 4.30 | 7.70 | < 5.00 | 5.11 | –
2 | CC(C)[C@H]1CN(C(=O)c2noc(-c3cc(F)c(F)c(O)c3F)n2)C[C@@H](C)O1 (racemic) [Example 122, rac-((2R,6S)-2-isopropyl-6-methylmorpholino)(5-(2,4,5-trifluoro-3-hydroxyphenyl)-1,2,4-oxadiazol-3-yl)methanone] | < 4.30 | 7.40 | 4.65 | 5.36 | –
3 | CC1CN(C(=O)c2noc(-c3cc(F)c(F)c(O)c3F)n2)CC2(CCC2)O1 (racemic) [Example 123, (6-Methyl-5-oxa-8-azaspiro[3.5]nonan-8-yl)(5-(2,4,5-trifluoro-3-hydroxyphenyl)-1,2,4-oxadiazol-3-yl)methanone] | 4.49 | 7.10 | < 5.52 | 5.03 | –
4 | C[C@@H]1CN(C(=O)c2ccc(-c3cc(F)c(F)c(O)c3F)s2)C[C@H](C)O1 [Example 3, ((2R,6S)-2,6-Dimethylmorpholino)(5-(2,4,5-trifluoro-3-hydroxyphenyl)thiophen-2-yl)methanone] | 4.50 | 7.52 | < 4.00 | 5.80 | –
5 | COc1ccccc1C1CCN(C(=O)c2noc(-c3cc(F)c(F)c(O)c3F)n2)C1 (stereo not drawn) [Example 4, (3-(2-Methoxyphenyl)pyrrolidin-1-yl)(5-(2,4,5-trifluoro-3-hydroxyphenyl)-1,2,4-oxadiazol-3-yl)methanone] | 5.21 | 7.10 | 5.72 | 6.22 | –
6 | O=C(c1noc(-c2ccc(F)c(O)c2)n1)N1CC[C@H](c2ccccc2)C1 [Example 11, (R)-(5-(4-Fluoro-3-hydroxyphenyl)-1,2,4-oxadiazol-3-yl)(3-phenylpyrrolidin-1-yl)methanone] | < 4.30 | 6.10 | 5.51 | 4.89 | –
7 | C[C@@H]1C[C@H](C)CN(C(=O)c2noc(-c3cc(F)c(F)c(O)c3F)n2)C1 [Example 37, ((3R,5S)-3,5-Dimethylpiperidin-1-yl)(5-(2,4,5-trifluoro-3-hydroxyphenyl)-1,2,4-oxadiazol-3-yl)methanone] | 4.52 | 7.52 | 5.60 | 5.11 | –
8 | N#Cc1cccc2c1CCN(C(=O)c1noc(-c3cc(F)c(F)c(O)c3F)n1)C2 [Example 66, 2-(5-(2,4,5-Trifluoro-3-hydroxyphenyl)-1,2,4-oxadiazole-3-carbonyl)-1,2,3,4-tetrahydroisoquinoline-5-carbonitrile] | 4.71 | 6.60 | 5.49 | 5.51 | –
9 | N#Cc1ccc2c(c1)CN(C(=O)c1noc(-c3cc(F)c(F)c(O)c3F)n1)CC2 [Example 86, 2-(5-(2,4,5-Trifluoro-3-hydroxyphenyl)-1,2,4-oxadiazole-3-carbonyl)-1,2,3,4-tetrahydroisoquinoline-7-carbonitrile] | 5.07 | 6.27 | 5.24 | 5.40 | –
10 | C[C@@H]1CN(C(=O)c2noc(-c3cc(F)c(F)c(O)c3F)n2)C[C@H](C)O1 [Example 87, ((2R,6S)-2,6-Dimethylmorpholino)(5-(2,4,5-trifluoro-3-hydroxyphenyl)-1,2,4-oxadiazol-3-yl)methanone] | < 3.70 | 7.22 | 4.34 | 4.81 | yielded Metabolite 1 and Metabolite 2
11 | C[C@@H]1CN(C(=O)c2cc(-c3cc(F)c(F)c(O)c3F)on2)C[C@H](C)O1 [Example 89, ((2R,6S)-2,6-Dimethylmorpholino)(5-(2,4,5-trifluoro-3-hydroxyphenyl)isoxazol-3-yl)methanone] | < 4.30 | 7.15 | 4.11 | 5.43 | –
12 | N#Cc1cccc2c1CCN(C(=O)c1noc(-c3c(F)c(O)c(F)c(F)c3I)n1)C2 [Example 109, 2-(5-(2,4,5-Trifluoro-3-hydroxy-6-iodophenyl)-1,2,4-oxadiazole-3-carbonyl)-1,2,3,4-tetrahydroisoquinoline-5-carbonitrile] | 4.93 | 5.77 | – | 4.83 | –
13 | C[C@@H]1C[C@H](C)CN(C(=O)c2nc(-c3cc(F)c(F)c(O)c3F)no2)C1 [Example 111, ((3R,5S)-3,5-Dimethylpiperidin-1-yl)(3-(2,4,5-trifluoro-3-hydroxyphenyl)-1,2,4-oxadiazol-5-yl)methanone] | < 4.30 | 7.00 | 5.47 | 5.31 | –
14 | O=C(c1noc(-c2cc(F)c(F)c(O)c2F)n1)N1CCO[C@H]2CCC[C@H]21 [Example 112, ((4aR,7aS)-Hexahydrocyclopenta[b][1,4]oxazin-4(4aH)-yl)(5-(2,4,5-trifluoro-3-hydroxyphenyl)-1,2,4-oxadiazol-3-yl)methanone] | < 4.30 | 6.41 | – | 5.27 | –
15 | O=C(c1noc(-c2cc(F)c(F)c(O)c2F)n1)N1CCO[C@@H]2CCC[C@@H]21 [Example 113, ((4aS,7aR)-Hexahydrocyclopenta[b][1,4]oxazin-4(4aH)-yl)(5-(2,4,5-trifluoro-3-hydroxyphenyl)-1,2,4-oxadiazol-3-yl)methanone] | 4.34 | 7.00 | 6.40 | 5.38 | –
16 | O=C(c1noc(-c2cc(F)c(F)c(O)c2F)n1)N1CCO[C@@H]2CCC[C@H]21 [Example 114, ((4aR,7aR)-Hexahydrocyclopenta[b][1,4]oxazin-4(4aH)-yl)(5-(2,4,5-trifluoro-3-hydroxyphenyl)-1,2,4-oxadiazol-3-yl)methanone] | < 4.30 | 6.92 | 4.22 | 5.14 | –
17 | O=C(c1noc(-c2cc(F)c(F)c(O)c2F)n1)N1CCO[C@H]2CCC[C@@H]21 [Example 115, ((4aS,7aS)-Hexahydrocyclopenta[b][1,4]oxazin-4(4aH)-yl)(5-(2,4,5-trifluoro-3-hydroxyphenyl)-1,2,4-oxadiazol-3-yl)methanone] | < 4.30 | 7.00 | < 4.00 | 5.01 | –
18 | CC1CN(C(=O)c2noc(-c3cc(F)c(F)c(O)c3F)n2)CC(C)(C)O1 (stereo not drawn) [Example 117, (5-(2,4,5-Trifluoro-3-hydroxyphenyl)-1,2,4-oxadiazol-3-yl)(2,2,6-trimethylmorpholino)methanone] | 4.40 | 7.05 | 6.30 | 5.31 | –
19 | O=C(c1noc(-c2cc(F)c(F)c(O)c2F)n1)N1CCOC2(CC2)C1 [Example 118, (4-Oxa-7-azaspiro[2.5]octan-7-yl)(5-(2,4,5-trifluoro-3-hydroxyphenyl)-1,2,4-oxadiazol-3-yl)methanone] | < 4.30 | 6.66 | – | 5.11 | –
20 | C[C@@H]1CN(C(=O)c2noc(-c3cc(F)c(F)c(O)c3F)n2)C[C@H](C)N1 [Example 119, ((3R,5S)-3,5-Dimethylpiperazin-1-yl)(5-(2,4,5-trifluoro-3-hydroxyphenyl)-1,2,4-oxadiazol-3-yl)methanone] | < 4.30 | 5.56 | – | 4.91 | –
21 | C[C@@H]1CN(C(=O)c2cnc(-c3cc(F)c(F)c(O)c3F)s2)C[C@H](C)O1 [Example 120, ((2R,6S)-2,6-Dimethylmorpholino)(2-(2,4,5-trifluoro-3-hydroxyphenyl)thiazol-5-yl)methanone] | < 4.30 | 6.85 | 5.07 | 4.89 | –
